{
  "source": "paper PMC3432695",
  "about": "(European journal of medicinal chemistry, 2012)",
  "key": {"Chemical": {"experiment": "Chemical", "assay_type": "physicochemical", "settings": "for t1/2 PBS: PBS pH 7.4, 37 °C, 2 mM"}, "Stability": {"experiment": "Stability", "assay_type": "in vitro ADME, Bovine", "settings": "for t1/2 Bovine serum: 37 °C, 2 mM; for hydrolysis rate in Bovine serum relative to rate in PBS: times faster in Bovine serum than in PBS"}, "Stability in Bovine CSF": {"experiment": "Stability in Bovine CSF", "assay_type": "in vitro ADME", "settings": "for t1/2 Bovine CSF: 37 °C, 2 mM"}, "[1]": {"experiment": "Solubility in PBS at pH 5, pH 6 and pH 7.4", "assay_type": "physicochemical", "settings": "for solubility PBS pH 5: PBS pH 5, 37 °C; for solubility PBS pH 5 / solubility PBS pH 6 / solubility PBS pH 7.4: hydrochloride salts of 12, 15, 18, 21; for solubility PBS pH 6: PBS pH 6, 37 °C; for solubility PBS pH 7.4: PBS pH 7.4, 37 °C; for solubility at 4 h: PBS, 37 °C, thermodynamic from solid"}, "TK1 (+) L929 cells": {"test_system": "TK1 (+) L929 cells", "settings": "cited from earlier work; for in vitro uptake in TK1 (+) L929 cells relative to TK1 (−) L929 cells: 24 h incubation in compound containing medium; for retention in cells: incubation continued for 12 h in compound free medium"}, "[2]": {"test_system": "TK1 (+)- or TK1 (−) L929 tumors", "settings": "intratumoral injection, subcutaneous tumors in nude mice; cited from earlier work"}, "intracranial RG2 glioma": {"test_system": "intracranial RG2 glioma", "settings": "cited from earlier work"}, "[3]": {"settings": "ref Song et al. 15; cited from earlier work"}, "[4]": {"settings": "ref Song et al. 15; cited from earlier work", "remark": "listed apart in the source"}, "[5]": {"settings": "cited from earlier work"}},
  "note": "Several values for one entry are separate records, joined by “and”; a condition that tells them apart may be missing. Equal values may be shown once.",
  "data": [
    {"molecule": "5'-Glycinyl-3-[5-(2-{2,3-dihydroxyprop-1-yl}-o-carboran-1-yl)pentan-1-yl]thymidine [Compound 21]", "values": [
      {"measurement": "t1/2 PBS", "setting": "Chemical", "result": "2.21 ± 0.15", "unit": "h"},
      {"measurement": "t1/2 Bovine serum", "setting": "Stability", "result": "1.51 ± 0.04", "unit": "h"},
      {"measurement": "hydrolysis rate in Bovine serum relative to rate in PBS", "setting": "Stability", "result": 1.5, "unit": "times"},
      {"measurement": "t1/2 Bovine CSF", "setting": "Stability in Bovine CSF", "result": "2.11 ± 0.14", "unit": "h"},
      {"measurement": "solubility PBS pH 5", "setting": "[1]", "result": "11.18 ± 0.21", "unit": "g/L"},
      {"measurement": "solubility PBS pH 6", "setting": "[1]", "result": "3.60 ± 0.12", "unit": "g/L"},
      {"measurement": "solubility PBS pH 7.4", "setting": "[1]", "result": "0.62 ± 0.03", "unit": "g/L"}
    ]},
    {"molecule": "5'-L-Glutam-5-yl-3-(5-{o-carboran-1-yl}pentan-1-yl)thymidine [Compound 18]", "values": [
      {"measurement": "t1/2 PBS", "setting": "Chemical", "result": "11.16 ± 0.37", "unit": "h"},
      {"measurement": "t1/2 Bovine serum", "setting": "Stability", "result": "0.85 ± 0.12", "unit": "h"},
      {"measurement": "hydrolysis rate in Bovine serum relative to rate in PBS", "setting": "Stability", "result": 13.1, "unit": "times"},
      {"measurement": "t1/2 Bovine CSF", "setting": "Stability in Bovine CSF", "result": "1.85 ± 0.11", "unit": "h"},
      {"measurement": "hydrolysis rate in CSF relative to PBS", "setting": "Stability in Bovine CSF; times higher in Bovine CSF than in PBS", "result": 6, "unit": "times"},
      {"measurement": "solubility PBS pH 5", "setting": "[1]", "result": "1.13 g/L and 1.16 ± 0.04 g/L"},
      {"measurement": "solubility PBS pH 6", "setting": "[1]", "result": "1.13 ± 0.06", "unit": "g/L"},
      {"measurement": "solubility PBS pH 7.4", "setting": "[1]", "result": "1.77 ± 0.08", "unit": "g/L"}
    ]},
    {"molecule": "3',5'-Di-L-glutam-5-yl-3-(5-{o-carboran-1-yl}pentan-1-yl)thymidine [Compound 19]", "values": [
      {"measurement": "t1/2 PBS", "setting": "Chemical", "result": "3.42 ± 0.10", "unit": "h"}
    ]},
    {"molecule": "3'-Glycinyl-3-(5-{o-carboran-1-yl}pentan-1-yl)thymidine [Compound 14]", "values": [
      {"measurement": "t1/2 PBS", "setting": "Chemical", "result": "1.51 ± 0.11", "unit": "h"}
    ]},
    {"molecule": "5'-Glycinyl-3-(5-{o-carboran-1-yl}pentan-1-yl)thymidine [Compound 15]", "values": [
      {"measurement": "t1/2 PBS", "setting": "Chemical", "result": "0.70 ± 0.04", "unit": "h"},
      {"measurement": "t1/2 Bovine serum", "setting": "Stability", "result": "0.69 ± 0.02", "unit": "h"},
      {"measurement": "hydrolysis rate in Bovine serum relative to rate in PBS", "setting": "Stability", "result": "did not change"},
      {"measurement": "t1/2 Bovine CSF", "setting": "Stability in Bovine CSF", "result": "0.96 ± 0.04", "unit": "h"},
      {"measurement": "solubility PBS pH 5", "setting": "[1]", "result": "10.99 ± 0.20", "unit": "g/L"},
      {"measurement": "solubility PBS pH 6", "setting": "[1]", "result": "2.06 ± 0.11", "unit": "g/L"},
      {"measurement": "solubility PBS pH 7.4", "setting": "[1]", "result": "0.19 ± 0.01", "unit": "g/L"}
    ]},
    {"molecule": "5'-L-Valyl-3-(5-{o-carboran-1-yl}pentan-1-yl)thymidine [Compound 12]", "values": [
      {"measurement": "t1/2 PBS", "setting": "Chemical", "result": "25.59 ± 0.61", "unit": "h"},
      {"measurement": "t1/2 Bovine serum", "setting": "Stability", "result": "22.21 ± 0.52", "unit": "h"},
      {"measurement": "hydrolysis rate in Bovine serum relative to rate in PBS", "setting": "Stability", "result": 1.2, "unit": "times"},
      {"measurement": "t1/2 Bovine CSF", "setting": "Stability in Bovine CSF", "result": "25.47 ± 0.10", "unit": "h"},
      {"measurement": "solubility relative to compounds 15 and 21", "setting": "[1]; PBS pH 5, 6, 7.4", "result": "1–7 times"},
      {"measurement": "solubility PBS pH 5", "setting": "[1]", "result": "26.30 ± 0.90", "unit": "g/L"},
      {"measurement": "solubility PBS pH 6", "setting": "[1]", "result": "3.70 ± 0.31", "unit": "g/L"},
      {"measurement": "solubility PBS pH 7.4", "setting": "[1]", "result": "1.31 ± 0.05", "unit": "g/L"}
    ]},
    {"molecule": "3-[5-{2-(2,3-dihydroxyprop-1-yl)-o-carboran-1-yl}pentan-1-yl]thymidine [Compound 2]", "values": [
      {"measurement": "solubility PBS pH 5", "setting": "[1]", "result": "0.007–0.01 g/L"},
      {"measurement": "solubility PBS pH 6", "setting": "[1]", "result": "0.007–0.01 g/L"},
      {"measurement": "solubility PBS pH 7.4", "setting": "[1]", "result": "0.007–0.01 g/L"},
      {"measurement": "in vitro uptake in TK1 (+) L929 cells relative to TK1 (−) L929 cells", "setting": "TK1 (+) L929 cells", "result": "5–10"},
      {"measurement": "retention in cells", "setting": "TK1 (+) L929 cells", "result": "retained only in the former cell line"},
      {"measurement": "boron concentration in TK1 (+) relative to TK1 (−) L929 tumors", "setting": "[2]", "result": "~ 3 times"},
      {"measurement": "survival times relative to rats that received BNCT without compound", "setting": "intracranial RG2 glioma; intracranial injection prior to BNCT, rats with intracranial RG2 glioma", "result": "about 2 times"},
      {"measurement": "pathologic alterations in rat brains", "setting": "intracranial RG2 glioma; rat, in vivo", "result": "no significant pathologic alterations"}
    ]},
    {"molecule": "3',5'-Di-glycinyl-3-(5-{o-carboran-1-yl}pentan-1-yl)thymidine [Compound 16]", "values": [
      {"measurement": "t1/2 PBS", "setting": "Chemical", "result": "0.22 ± 0.03", "unit": "h"}
    ]},
    {"molecule": "3-(5-{o-Carboran-1-yl}pentan-1-yl)thymidine [Compound 1]", "values": [
      {"measurement": "solubility PBS pH 5", "setting": "[1]", "result": "0.003–0.005 g/L"},
      {"measurement": "solubility PBS pH 6", "setting": "[1]", "result": "0.003–0.005 g/L"},
      {"measurement": "solubility PBS pH 7.4", "setting": "[1]", "result": "0.003–0.005 g/L"},
      {"measurement": "in vitro uptake in TK1 (+) L929 cells relative to TK1 (−) L929 cells", "setting": "TK1 (+) L929 cells", "result": "5–10"},
      {"measurement": "retention in cells", "setting": "TK1 (+) L929 cells", "result": "retained only in the former cell line"}
    ]},
    {"molecule": "3'-L-Valyl-3-(5-{o-carboran-1-yl}pentan-1-yl)thymidine [Compound 11]", "values": [
      {"measurement": "t1/2 PBS", "setting": "Chemical", "result": "29.79 ± 0.42", "unit": "h"}
    ]},
    {"molecule": "CC(C)[C@H](N)C(=O)OCCOCn1cnc2c(=O)[nH]c(N)nc21", "note": "[Compound 4, valacyclovir, reference compound]", "values": [
      {"measurement": "half-life at 2 mM", "setting": "Chemical; PBS, pH 7.4", "result": "13.6 ± 0.49", "unit": "h"},
      {"measurement": "half-life at 2 mM", "setting": "Stability; bovine, bovine serum", "result": "6.2 ± 0.17", "unit": "h"},
      {"measurement": "hydrolysis rate in Bovine serum relative to rate in PBS", "setting": "Stability", "result": 2.2, "unit": "times"},
      {"measurement": "half-life at 2 mM", "setting": "Stability in Bovine CSF; bovine, bovine CSF", "result": "7.59 ± 0.12", "unit": "h"},
      {"measurement": "solubility relative to 12", "setting": "[1]; PBS pH 5, 6, 7.4", "result": "1.5–3 times"},
      {"measurement": "solubility at 4 h", "setting": "[1]; pH 5, aqueous buffer", "result": "72.7 ± 0.4", "unit": "mg/mL"},
      {"measurement": "solubility at 4 h", "setting": "[1]; pH 6, aqueous buffer", "result": "13.4 ± 0.26", "unit": "mg/mL"},
      {"measurement": "solubility at 4 h", "setting": "[1]; pH 7.4, aqueous buffer", "result": "1.91 ± 0.06", "unit": "mg/mL"},
      {"measurement": "half-life for the chemical hydrolysis", "setting": "[3]", "result": 17.15, "unit": "h"},
      {"measurement": "half-life for the hydrolysis in human plasma", "setting": "[4]", "result": 5.2, "unit": "h"},
      {"measurement": "water solubility relative to parental nucleoside analogue (acyclovir)", "setting": "[5]", "result": "about 130 times"}
    ]},
    {"molecule": "3'-L-Glutam-5-yl-3-(5-{o-carboran-1-yl}pentan-1-yl)thymidine [Compound 17]", "values": [
      {"measurement": "t1/2 PBS", "setting": "Chemical", "result": "26.91 ± 0.71", "unit": "h"}
    ]},
    {"molecule": "3',5'-Di-L-valyl-3-(5-{o-carboran-1-yl}pentan-1-yl)thymidine [Compound 13]", "values": [
      {"measurement": "t1/2 PBS", "setting": "Chemical", "result": "12.91 ± 0.17", "unit": "h"}
    ]}
  ]
}
